Source: patent US6689764B1, “Treatment of angiogenesis dependent conditions with dextrin sulphate” (priority 1999, dated 2004)

Key:
[1] = system: HUVEC cells; conditions: in vitro, Thornton et al 1999; cited from earlier work
[2] = system: AP5LV human colorectal xenograft; assay: AP5LV human colorectal xenograft in SCID mice; format: in vivo
Experimental: Dextrin sulphate, 10 mg/kg in 1ml icodextrin was administered every second day to two male SCID micc. Dosing continued for 14 days.
The cell line evaluated, AP5LV, is a variant of an established human colorectal cell line, derived originally from a patient's primary tumour. AP5LV cells have been selected for their ability to both colonise the lungs following intravenous injection and to spontaneously metastasise to the lungs following injection of the cells into the peritoneal muscle wall. AP5LV cells were maintained in vitro in RPMI 1640 culture medium (Gibco, Paisley, UK) containing 10% (v/v) heat inactivated foetal bovine serum (Sigma, Poole, UK) at 37° C. in 5% CO2 and humidified conditions. Cells from semi-confluent monolayers were harvested with 0.025% EDTA, washed twice in the culture medium described above, and re-suspended at 5×10^6/50 μl in sterile phosphate buffered saline, pH 7.4(PBS).
The mice were anaesthetised using Hypnorm(Roche)/Hyponovel(Janssen) and the cell suspension injected into the peritoneal muscle wall of 20 male SCD mice. Mice were electronically tagged for identification purposes (RS Biotech, Tracker), and randomly allocated to two experimental groups (see below). The treatment regime was initiated on day 1 and continued every other day until termination on day 38. […]

[3] = system: SK-HEP-1 cells; assay: In vitro proliferation, MTT uptake; format: cell-based, human
Experimental: (§1) SK-HEP-1 is a human liver adenocarcinoma with endothelial morphology and ECV304 is a human urinary bladder carcinoma with endothelial-like characteristics. Both cell lines were obtained from the ECACC. HUVEC was provided as a growing culture by TCS Biologicals.
(§2) Cells were grown and prepared in RPMI medium containing 10% FCS and 2mM glutamine. For the in vitro assays, cells were harvested with 0.025% EDTA, washed in the culture medium and plated into 96-well plates at 5×10^3 and 1×10^4 cells/well in a volume of 100 μl. After 24 hours, to allow for cell adherence, the medium was replaced with fresh medium containing dextrin sulphate at concentrations of 0, 1, 5, 10, 50, 100, 500, 1000 μg/ml. After 48 hours, proliferation was assessed by methyl thiazol tetrazolium (MTT) uptake as follows:
(§3) MTT (Sigma) was added to the wells in a 50 μl volume at a concentration of 1mg/ml. After 4 hours incubation the insoluble formazan crystals were solubilised by the addition of 75 μl DMSO/well and the absorbance measured at 550 nm.
(§4) Dextrin sulphate was assessed in two separate experiments. All experiments were performed with two different cell-seeding concentrations. […] To compare between cell lines and experiments, the level of inhibition achieved at the highest concentration evaluated (1000 μg/ml) was calculated as was the significance from the untreated control. (See FIG. 11).

[4] = system: ECV304 cells; assay: In vitro proliferation, MTT uptake; format: cell-based, human
Experimental: as §1, §2, §3, §4

[5] = system: HUVEC cell line; assay: TCS Biologicals Human Angiogenesis Model (tubule formation); format: cell-based
Experimental: The effect of sulphated dextrin on vessel formation of the HUVEC cell line was performed by the use of the TCS Biologicals Human Angiogenesis Model. The assay is supplied as a growing culture of the HUVEC cell line together with culture matrix and additional human cells present (the exact nature of the cells is not known) at the earliest stages of tubule formation in a 24-well format. The positive control reagent was a standard stock solution of VEGF and the negative control was Suramin. After removing the well seals, the cultures were examined for cell morphology to confirm their viability.
Growth medium was provided with the kit and was used to make up the sulphated dextrin at concentrations ranging from 0-1000 μg/ml. The existing medium was aspirated from the wells and replaced with medium containing the dextrin sulphate concentrations in a 0.5ml volume. This was placed at 37° C., in a 5% CO2 containing atmosphere. This was repeated on days 4, 7 and 9.
Between days 7-11 cultures were fixed by the enclosed fixative and stained with the mouse monoclonal anti-PECAM-1 antibody at a 1:4000 dilution (present in blocking buffer). 0.5ml of diluted antibody was added per well and incubated for 60 minutes at 37° C. The secondary antibody (goat anti-mouse lgG alkaline phosphatase conjugate) was diluted 1:500 in blocking buffer and added to the wells after washing for 60 minutes at 37° C. After washing the plate the substrate was prepared; BCIP/NBT tablets were dissolved in distilled water and added to the wells. Following incubation for 5-10 minutes the wells were washed and were imaged using the Leica Qwin image analysis software package.

[6] = system: human placental blood vessels; assay: Placental blood vessel in fibrin clot in vitro angiogenesis assay; format: cell-based; conditions: 100 μg/ml, up to day 22
Experimental: Compounds were tested at a final concentration of 100 μg/ml. The degree of new vessel formation was quantified blind twice a week using a visual analog scale in which 0=no growth, 1=minimal new vessel formation, 2=significant new vessel formation, and 3=dense new vessel formation. An angiogenesis score was derived from each count by dividing the total score (i.e. the sum of all the wells) by the maximum possible score and then expressing the result as a percentage. This graph is representative of 3 experiments with a total of 20 wells/plate/experiment for each compound tested.
Blood vessels (approximately 1-2 mm diameter) were excised from the apical surface of human placentas within 6 h of an elective Caesarean birth. Use of the placentas for these studies were approved by the Ethics Committee of Hammersmith Hospitals Trust, London. The blood vessels were placed in Hank's balanced salt solution and cut into 1-2 mm fragments using fine dissecting forceps and iridectomy scissors. Residual clots were removed and the blood vessels then soaked in Hank's balanced salt solution.
The effect of each compound on new blood vessel formulation was determined by culturing the blood vessels within a fibrin clot in 24-well tissue culture plates. Thirty μl of bovine thrombin (50 NIH U/ml in 0.15 M sodium chloride) was added to each well followed by 1 ml/well of 3 mg/ml bovine fibrinogen in Medium 199. The thrombin and fibrinogen were rapidly mixed and a blood vessel fragment placed in the centre of the well. Fibrin gel formation occurred rapidly and left the vessel suspended within the gel. One ml/well of Medium 199 supplemented with 20% foetal calf serum, 250 IU/ml penicillin and 250 U/ml streptomycin was then added to each well. ε-arnino-n-caproic acid was also added (300 μg/ml) for the first 4 days and twice weekly thereafter (50 μg/ml) in order to prevent dissolution of the fibrin clot. The vessels were cultured at 37° C. in a humidified incubator for 25 days with the media being changed twice weekly.
The degree of new vessel formation was quantified blind twice a week by three different observers using a visual analogue scale in which 0=no growth, 1=very little new vessel formation, 2=significant new vessel formation and 3=dense new vessel formation. An angiogenesis score was derived from the counts undertaken for each well by dividing the total score by the maximum score possible and then expressing the result as a percentage. On each of 3 separate occasions, each compound was tested in 20 replicate wells. […] Some of the fibrin clots were fixed overnight in 10% formalin, paraffin embedded, sectioned for histology and then stained for the endothelial cell markers Factor VIII and CD31. Results are expressed as the mean±sem. A students t-test was used to determine the level of significance.

Substance: dextrin sulphate
- proliferation of HUVEC cells [1]: not to be directly inhibited
- toxicity ([2]; 10 mg/kg i.p. every second day, SCID mice): no toxicity
- reduction in final tumour weight ([2]; 10 mg/kg in 4% Icodextrin i.p. every second day, termination day 38, SCID mice): 28%
- inhibition of in vitro growth ([3]; SK-HEP-1, 0-1000 μg/ml, 48 hours): moderate levels of inhibition
- level of inhibition of growth ([3]; SK-HEP-1, 1000 μg/ml, lower cell concentration): ~65%
- concentrations at which inhibitory effects were seen ([3]; SK-HEP-1, MTT assay): > 100 µg/mL
- level of inhibition of growth ([3]; SK-HEP-1, higher cell concentration): not as great
- inhibition of in vitro growth ([4]; ECV304, 0-1000 μg/ml, 48 hours): moderate levels of inhibition
- level of inhibition of growth ([4]; ECV304, 1000 μg/ml, both cell concentrations, two experiments): 11-33%
- concentrations at which inhibitory effects were seen ([4]; ECV304, MTT assay): > 100 µg/mL
- branch point number, % of control ([5]; 1 μg/ml): 120%
- tubule branch points, reduction ([5]; 1 μg/ml): 31%
- branch point number, % of control ([5]; 5 μg/ml): 115%
- branch point number, inhibition ([5]; 50 μg/ml): 26%
- branch point number, inhibition ([5]; 100 μg/ml): 48%
- tubule number, inhibition ([5]; 100 μg/ml): 48%
- branch point number, inhibition ([5]; 500 μg/ml): 53%
- branch point number, inhibition ([5]; 1000 μg/ml): 68%
- tubule branch points, reduction ([5]; 1000 μg/ml): 93%
- tubule number, inhibition ([5]; 1000 μg/ml): 68%
- branch point number ([5]; all concentrations evaluated (1-1000 μg/ml)): inhibitory effect
- tubule number ([5]; lower concentrations): low but significant stimulation
- new vessel formation compared to media alone [6]: inhibits new vessel formation
